Test results: ChEMBL document CHEMBL1154856, “Leuconicines A-G and (-)-eburnamaline, biologically active strychnan and eburnan alkaloids from Leuconotis” (J Nat Prod, 2009)

What was measured:
Format in all cases: functional, cell-based
KB = assay: Cytotoxicity against vincristine-sensitive human KB cells
[1] = Cytotoxicity against vincristine-resistant human KB/VJ300 cells
[2] = Cytotoxicity against vincristine-resistant human KB/VJ300 cells in presence of 0.1 ug/ml vincristine
[3] = Cytotoxicity against vincristine-resistant human KB/VJ300 cells in presence of 0.121 uM vincristine

Row | SMILES | IC50 (KB) [mg/L] | IC50 [1] [mg/L] | IC50 [2] [mg/L] | IC50 [3] [µM]
1 | CC[C@@]12CCCN3CCc4c(n(c5ccccc45)[C@H](O)[C@@H]1O)[C@H]32 | > 25 | > 25 | > 25 | 
2 | CC[C@@H]1CN2CC[C@]34c5ccccc5-n5c3c(cc(C(N)=O)c5=O)[C@H]1C[C@H]24 [LEUCONICINE A] | > 25 | > 25 | 2.57 | 7.12
3 | CC[C@@H]1CN2CC[C@]34c5ccccc5-n5c3c(cc(C(=O)OC)c5=O)[C@H]1C[C@H]24 [LEUCONICINE B] | > 25 | > 25 | 1.98 | 5.27
4 | CCC1=CN2CC[C@]34c5ccccc5-n5c3c(cc(C(N)=O)c5=O)[C@H]1C[C@H]24 [LEUCONICINE C] | > 25 | > 25 | 3.86 | 10.8
5 | CCC1=CN2CC[C@]34c5ccccc5-n5c3c(cc(C(=O)O)c5=O)[C@H]1C[C@H]24 [LEUCONICINE E] | > 25 | > 25 | 13.5 | 37.6
6 | CC[C@@H]1C[N+]2([O-])CC[C@]34c5ccccc5-n5c3c(cc(C(N)=O)c5=O)[C@H]1C[C@@H]42 (some centres undefined) [LEUCONICINE F] | > 25 | > 25 | > 25 | 
7 | CC[C@@H]1C[N+]2([O-])CC[C@]34c5ccccc5-n5c3c(cc(C(=O)OC)c5=O)[C@H]1C[C@@H]42 (some centres undefined) [LEUCONICINE G] | > 25 | > 25 | > 25 | 
8 | CCC1=CN2CC[C@]34c5ccccc5-n5c3c(cc(C(=O)OC)c5=O)[C@H]1C[C@H]24 [MELODININE B] | > 25 | > 25 | 4.62 | 12.3
